Measurements from patent US8067021B2, “Methods and compositions for delivery of growth factor to fibrous connective tissue” (Affinergy, Inc., priority 2007, dated 2011).
Where a SMILES comes first, the peptide text is derived from it. The star is where a group is joined. Biotin = O=C1N[C@H]2[C@H](CS[C@H]2CCCCC(=O)*)N1

Columns and labels:
GDF-7 = molecular target: T1, GDF-7 (Mus musculus, UniProt P43029); assay: GDF-7 binding by composition immobilized on polyethylene terephthalate suture; details: 0.5 μM of the conjugate, relative to assay background
T1 construct: purchased R&D SYSTEMS
T1 sequence (P43029 316-461): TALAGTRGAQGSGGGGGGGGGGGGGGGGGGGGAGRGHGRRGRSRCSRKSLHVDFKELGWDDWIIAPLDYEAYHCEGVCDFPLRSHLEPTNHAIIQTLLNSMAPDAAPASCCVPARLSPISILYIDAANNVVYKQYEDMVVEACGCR
From the text: Using standard methods for peptide synthesis, amino acid sequences comprising SEQ ID NO:1-3 and SEQ ID NO: 67 were synthesized to contain an amino acid linker sequence (e.g., GSSGK, SEQ ID NO:72) at the C-terminus to which was linked biotin (via the lysine residue). See, for example, SEQ ID NOs: 73-76. Streptavidin (having 4 biotin binding sites) was used in conjunction with the biotin on the biotinylated peptides to form a linker between the two different peptide components. […]
Each of the three representative compositions according to the presently disclosed subject matter or the control conjugate were added individually to respective wells containing a suture and containing GDF-7 in various concentrations (starting at 100 nM final concentration for the compositions; 0.5 μM of the conjugate) with high salt buffer-T, and incubated for 1 hour at room temperature. […] It was determined in these experiments that maximal growth factor binding to the composition occurs within the first several minutes (e.g., within a time period ranging from 5 to 10 minutes), and that no additional GDF-7 appears to be retained to the surface of the implant in a time period of up to 1 hour of contact with the implant.

various growth factors = assay: Further binding studies: preference of binding for various growth factors; details: latter 3 growth factors: no detectable binding
Protocol: Since GDFs are also considered as members of the BMP family of proteins, and therefore share significant amino acid sequence homology, some binding cross-reactivity of peptides according to the presently disclosed subject matter with BMP-5 was noted. […] Further binding studies were performed from which was determined the preference of binding of peptides according to the presently disclosed subject matter for various growth factors. […] Thus peptides according to the presently disclosed subject matter show preferential binding to GDF-7, and show binding affinity for fibrous connective tissue-inducing growth factors.

[1] = Binding of surface-binding peptide to suture material; details: braided polyethylene terephthalate fibers
From the text: To illustrate this embodiment, a linker was used to couple a peptide having binding affinity for a surface of an implant with a peptide having binding affinity for fibrous connective tissue-inducing growth factor. […] Similarly, peptides having amino acid sequences of SEQ ID NOs: 1-3 were used individually as representative peptides having binding affinity for fibrous connective tissue-inducing growth factor, and for inclusion as a component in a composition according to the presently disclosed subject matter.

Compound | preference for binding affinity (from highest relative binding affinity to lowest) (various growth factors) | other results
peptide conjugate: negative control: biotinylated surface-binding peptide bound to streptavidin, without peptide having binding affinity for growth factor |  | binding for GDF-7 on suture (GDF-7): no appreciable binding
CC[C@H](C)[C@H](NC(=O)[C@H](CCC(=O)O)NC(=O)[C@H](CCCNC(=N)N)NC(=O)[C@@H]1CCCN1C(=O)CNC(=O)[C@H](CO)NC(=O)[C@@H](N)CO)C(=O)N[C@@H](Cc1c[nH]c2ccccc12)C(=O)N[C@@H](CC(=O)O)C(=O)N[C@@H](CO)C(=O)N[C@@H](CC(C)C)C(=O)N[C@H](C(=O)NCC(=O)N[C@H](C(=O)N[C@H](C(=O)N[C@@H](CC(N)=O)C(=O)N1CCC[C@H]1C(=O)NCC(=O)N[C@@H](Cc1c[nH]c2ccccc12)C(=O)N[C@@H](CO)C(=O)N[C@@H](CCCNC(=N)N)C(=O)NCC(=O)N[C@@H](CO)C(=O)N[C@@H](CO)C(=O)NCC(=O)N[C@@H](CCCCNC(=O)CCCC[C@@H]1SC[C@@H]2NC(=O)N[C@@H]21)C(N)=O)C(C)C)C(C)C)C(C)C [SEQ ID NO: 1, ssGPREIWDSLVGVVNPGWsr] (H-SSGPREIWDSLVGVVNPGWSRGSSGK(Biotin)-NH2; N-terminus and C-terminus assumed) | GDF-7>GDF-5, BMP-2>BMP-6>BMP-5>TGF-β1, TGF-β3, or PDGF-BB | 
SWWGFWNGSAAPVWSR [SEQ ID NO: 67] |  | binding affinity for suture material [1]: showed binding affinity
CC(C)C[C@H](NC(=O)[C@H](C)NC(=O)[C@H](Cc1c[nH]c2ccccc12)NC(=O)CNC(=O)CNC(=O)[C@@H](NC(=O)CNC(=O)CNC(=O)[C@H](CO)NC(=O)[C@@H](N)CO)C(C)C)C(=O)N[C@@H](Cc1ccccc1)C(=O)N[C@@H](CCC(=O)O)C(=O)N[C@H](C(=O)N[C@@H](CC(C)C)C(=O)N[C@@H](CCCNC(=N)N)C(=O)NCC(=O)N[C@@H](CCCCN)C(=O)N[C@@H](CCC(=O)O)C(=O)N[C@H](C(=O)N[C@@H](CO)C(=O)N[C@@H](CCCNC(=N)N)C(=O)NCC(=O)N[C@@H](CO)C(=O)N[C@@H](CO)C(=O)NCC(=O)N[C@@H](CCCCNC(=O)CCCC[C@@H]1SC[C@@H]2NC(=O)N[C@@H]21)C(N)=O)C(C)C)[C@@H](C)O [SEQ ID NO: 2, ssGGVGGWALFETLRGKEVsr] (H-SSGGVGGWALFETLRGKEVSRGSSGK(Biotin)-NH2; N-terminus and C-terminus assumed) | GDF-7>GDF-5, BMP-2, and BMP-6>BMP-5>TGF-β1, TGF-β3, or PDGF-BB | 
CSCC[C@H](NC(=O)CNC(=O)[C@H](CCC(=O)O)NC(=O)[C@H](Cc1c[nH]c2ccccc12)NC(=O)[C@H](CO)NC(=O)[C@H](CCCNC(=N)N)NC(=O)[C@H](CC(C)C)NC(=O)[C@H](C)NC(=O)[C@H](Cc1c[nH]c2ccccc12)NC(=O)[C@H](CCC(=O)O)NC(=O)[C@H](C)NC(=O)[C@@H](NC(=O)[C@H](CO)NC(=O)[C@@H](N)CO)C(C)C)C(=O)N[C@@H](CCCNC(=N)N)C(=O)N[C@H](C(=O)NCC(=O)N[C@@H](CCC(=O)O)C(=O)N[C@@H](C)C(=O)N[C@@H](CO)C(=O)N[C@@H](CCCNC(=N)N)C(=O)NCC(=O)N[C@@H](CO)C(=O)N[C@@H](CO)C(=O)NCC(=O)N[C@@H](CCCCNC(=O)CCCC[C@@H]1SC[C@@H]2NC(=O)N[C@@H]21)C(N)=O)C(C)C [SEQ ID NO: 3, ssVAEWALRSWEGMRVGEAsr] (H-SSVAEWALRSWEGMRVGEASRGSSGK(Biotin)-NH2; N-terminus and C-terminus assumed) | GDF-7>GDF-5, BMP-2>BMP-6>BMP-5>TGF-β1, TGF-β3, or PDGF-BB | 
